Laboratory results: patent US12336536B2, “Method for controlling herbicide resistant or tolerant weeds” (BASF Agro B.V., priority 2015, dated 2025)

How the values were obtained:
Assay in all cases: Greenhouse test, solo and combination, post-emergence, 20 DAT
PAPRH = format: in vivo, Papaver rhoeas
Method: (§1) The test plants have been seeded, separately for each species, in plastic containers in sandy loamy soil containing 5% of organic matter.
(§2) For the post-emergence treatment, the plants were first grown to the 2 leaf station (GS 12) and applied at GS 12-19 depending on the species. The herbicidal compositions were suspended or emulsified in water as distribution medium and sprayed using finely distributing nozzles.
(§3) The plants have been cultivated due to their individual requirements at 10-25° C. and 20-35° C. The plants were irrigated due to their necessity.
(§4) The racemic mixture (±)-2-exo-(2-Methylbenzyloxy)-1-methyl-4-isopropyl-7-oxabicyclo[2.2.1]heptane was used as herbicide A and formulated as emulsifiable concentrate having an active ingredient concentration of 750 g/l.
(§5) Cyhalofop-butyl (herbicide B.5) was used as an emulsifiable concentrate (EC) formulation having an active ingredient concentration of 200 g/l.
(§6) Metsulfuron-methyl (herbicide B.53) was used as a water soluble granule (SG) formulation having an active ingredient concentration of 20%.
(§7) Bispyribac-sodium (herbicide B.23) was used as a soluble concentrate (SL) formulation having an active ingredient concentration of 408 g/l.
(§8) Quizalofop-P-ethyl (herbicide B.217) was used as a suspension concentrate (SC) formulation having an active ingredient concentration of 106 g/l.
(§9) In the following experiments, the herbicidal activity for the individual herbicide compounds (solo and mixture applications) was assessed 20 days after treatment (DAT).
(§10) The evaluation for the damage on undesired weeds caused by the chemical compositions was carried out using a scale from 0 to 100%, compared to the untreated control plants. Here, 0 means no damage and 100 means complete destruction of the plants.
(§11) The plants used in the greenhouse experiments belonged to the following species:
(§12) E=X+Y−(X·Y/100) • where X=effect in percent using herbicide A at an application rate a; • Y=effect in percent using herbicide B at application rate b; • E=expected effect (in %) of herbicide A+herbicide B at application rates a+b.
(§13) The value E corresponds to the effect (plant damage or injury) which is to be expected if the activity of the individual compounds is additive. If the observed effect is higher than the value E calculated according to the Colby equation, a synergistic effect is present.
(§14) Tables 3 to 6 below relate the herbicidal activity, in greenhouse trials, of the individual actives and the combination applied at different rates and ratios, in post-emergence application at 20 days after treatment (DAT).

BROST = format: in vivo, Bromus sterilis
Method: as §1, §2, §3, §4, §5, §6, §7, §8, §9, §10, §11, §12, §13, §14

MATIN = format: in vivo, Matricaria inodora
Method: as §1, §2, §3, §4, §5, §6, §7, §8, §9, §10, §11, §12, §13, §14

ALOMY = format: in vivo, Alopecurus myosuroides
Method: as §1, §2, §3, §4, §5, §6, §7, §8, §9, §10, §11, §12, §13, §14

BRSNW = format: in vivo, Brassica napus
Method: as §1, §2, §3, §4, §5, §6, §7, §8, §9, §10, §11, §12, §13, §14

GALAP = format: in vivo, Galium aparine
Method: as §1, §2, §3, §4, §5, §6, §7, §8, §9, §10, §11, §12, §13, §14

LOLRI = format: in vivo, Lolium rigidum
Method: as §1, §2, §3, §4, §5, §6, §7, §8, §9, §10, §11, §12, §13, §14

`CCCCOC(=O)[C@@H](C)Oc1ccc(Oc2ccc(C#N)cc2F)cc1` [cyhalofop-butyl] gave a Herbicidal activity (PAPRH; solo application 12.5 g ai/ha) of 0%, a Herbicidal activity (PAPRH; solo application 50 g ai/ha) of 0% and a Herbicidal activity (BROST; solo application 100 g ai/ha) of 0%. For the same compound, the Herbicidal activity (MATIN; solo application 100 g ai/ha) was 0%, the Herbicidal activity (ALOMY; solo application 25 g ai/ha) was 5% and the Herbicidal activity (ALOMY; solo application 50 g ai/ha) was 20%. For the same compound, the Herbicidal activity (BRSNW; solo application 100 g ai/ha) was 0%, the Herbicidal activity (GALAP; solo application 50 g ai/ha) was 0% and the Herbicidal activity (GALAP; solo application 100 g ai/ha) was 0%. It also gave a Herbicidal activity (LOLRI; solo application 12.5 g ai/ha) of 25%.

For `COc1cc(OC)nc(Oc2cccc(Oc3nc(OC)cc(OC)n3)c2C(=O)O)n1` [bispyribac-sodium], the Herbicidal activity (PAPRH; solo application 15 g ai/ha) was 0%, the Herbicidal activity (PAPRH; solo application 60 g ai/ha) was 50% and the Herbicidal activity (PAPRH; solo application 120 g ai/ha) was 50%. The Herbicidal activity (MATIN; solo application 60 g ai/ha) was 85%, the Herbicidal activity (MATIN; solo application 120 g ai/ha) was 90% and the Herbicidal activity (ALOMY; solo application 30 g ai/ha) was 0%. For the same compound, the Herbicidal activity (ALOMY; solo application 60 g ai/ha) was 0%, the Herbicidal activity (BRSNW; solo application 15 g ai/ha) was 98% and the Herbicidal activity (GALAP; solo application 15 g ai/ha) was 40%. The Herbicidal activity (GALAP; solo application 30 g ai/ha) was 65%, the Herbicidal activity (GALAP; solo application 120 g ai/ha) was 95% and the Herbicidal activity (LOLRI; solo application 60 g ai/ha) was 5%.

`CCOC(=O)[C@@H](C)Oc1ccc(Oc2cnc3cc(Cl)ccc3n2)cc1` [quizalofop-P-ethyl] showed a Herbicidal activity (PAPRH; solo application 15 g ai/ha) of 25%, a Herbicidal activity (BROST; solo application 15 g ai/ha) of 15% and a Herbicidal activity (BROST; solo application 30 g ai/ha) of 50%. For the same compound, the Herbicidal activity (BROST; solo application 60 g ai/ha) was 80%, the Herbicidal activity (BROST; solo application 120 g ai/ha) was 95% and the Herbicidal activity (MATIN; solo application 15 g ai/ha) was 0%. The Herbicidal activity (MATIN; solo application 30 g ai/ha) was 0%, the Herbicidal activity (MATIN; solo application 60 g ai/ha) was 10% and the Herbicidal activity (ALOMY; solo application 15 g ai/ha) was 60%. The Herbicidal activity (ALOMY; solo application 30 g ai/ha) was 65%, the Herbicidal activity (ALOMY; solo application 120 g ai/ha) was 85% and the Herbicidal activity (BRSNW; solo application 120 g ai/ha) was 0%. It also gave a Herbicidal activity (GALAP; solo application 15 g ai/ha) of 0%, a Herbicidal activity (GALAP; solo application 30 g ai/ha) of 0% and a Herbicidal activity (LOLRI; solo application 15 g ai/ha) of 80%. It also gave a Herbicidal activity (LOLRI; solo application 30 g ai/ha) of 95%.
